Reference: patent publication US20240139167A1, “LYSOSOME-ASSOCIATED MEMBRANE PROTEIN TARGETING COMPOUNDS AND USES THEREOF” (HADASIT MEDICAL RESEARCH SERVICES AND DEVELOPMENT LTD., priority 2021, published 2024)

Key:
[1] = Irwin test (abnormal spontaneous behavior); format: in vivo, mice; design: Wounds / Transfer behavior / Tremor / Gait / Tail elevation / Touch escape / Trunk curl / Righting reflex / Salivation / Extension reflex: scale not given here
Description: The inventors have tested Compound 1 (FIG. 1A) for its capacity to correct the deficient motor phenotypes and short lifespan in the APBD mouse model Gbe^ys/ys. Compound 1 is one of 19 PG reducing HTS hits previously discovered by the inventors. It was selected by in silico ADMET (Absorption, Distribution, Metabolism, Excretion, and Toxicity) tests run on these hits to predict which of them should be safe and pharmacokinetically and pharmacodynamically preferred and is therefore worth further pursuit (FIG. 8, compound “A”). […] Following 1 h and 24 h treatments, mice were also examined for abnormal spontaneous behavior, such as immobility, excessive running, stereotyped movements, and abnormal posture (Irwin tests).

[2] = test system: APBD and HC skin fibroblasts; experiment: Image-based phenotyping (IBP); format: cell-based, human
Description: FIGS. 7A-7F include graphs of IBP parameters in HC and APBD fibroblasts and variable importance plot as an output of the random forest classification performed on the different variables (cell features) indicated on the x-axis. […] The different comparisons analyzed (comp A=Compound 1) are shown (7B); bar graphs of lysosomal parameters affected by Compound 1 in APBD and HC cells as analyzed by IBP (7C); Volcano plots of the proteins affected by APBD and Compound 1 under starvation and glycogen burden conditions (7D); Venn diagrams of proteins down-modulated by APBD and up modulated by Compound 1 and vice versa under starvation (48) and glycogen burden (48+24) conditions (7E); and gene ontology of proteins up-modulated (left) and down-modulated (right) by Compound 1 (7F).
APBD skin fibroblasts were seeded at 1,000 cells/well and cultured in specialized microscopy-grade 96-well plates (Grenier Bio-One, Germany). Following the different treatments, a mix of Thermo Scientific cellular fluorescent dyes in PBS was added to each well for 30 min at 37° C. in a 5% CO2 incubator. This mix (FIGS. 4C and 7B) included DAPI (1 μg/ml, nuclear (DNA) stain), MitoTracker Green (500 nM, potential-independent mitochondrial stain), TMRE ([…] mitochondrial stain), and Cell Mask Deep Red (0.5 μg/ml, cytosol stain). In FIG. 7C, only lysosomes were stained with LysoTracker Deep Red (75 nM). Cells were then fixed with 4% paraformaldehyde (PFA), washed with PBS and plates were transferred to an InCell2200 (GE Healthcare, U.K.) machine for image acquisition at 40× magnification. The output produced was based on comparative fluorescence intensity. Object segmentation was carried out using multi-target analysis in the GE analysis workstation to identify the nuclei and cell boundary. […]
As a first step, the inventors required a classification method, both wholistic and feature-specific, which would enable to quantify differences between APBD and HC cells and thus to estimate the restorative effect of Compound 1 on APBD cells. […]

COCCN(Cc1sccc1C)C(=O)c1cc(C)nc(O)c1 [Compound 1]
Appearance of fur ([1]; 50 mg/kg, 1 h): 2 | Body position ([1]; 50 mg/kg, 1 h): 3.5 | Coat color ([1]; 50 mg/kg, 1 h): Black | Extension reflex ([1]; 50 mg/kg, 1 h): 2 | Gait ([1]; 50 mg/kg, 1 h): 0 | Patches of missing fur on body ([1]; 50 mg/kg, 1 h): 0 | Patches of missing fur on face ([1]; 50 mg/kg, 1 h): 0 | Pelvic elevation ([1]; 50 mg/kg, 1 h): 2 | Piloerection ([1]; 50 mg/kg, 1 h): 0 | Positional passivity ([1]; 50 mg/kg, 1 h): 0 | Presence of whiskers ([1]; 50 mg/kg, 1 h): 3 | Righting reflex ([1]; 50 mg/kg, 1 h): 0 | Salivation ([1]; 50 mg/kg, 1 h): 0 | Tail elevation ([1]; 50 mg/kg, 1 h): 1 | Touch escape ([1]; 50 mg/kg, 1 h): 2 | Transfer behavior ([1]; 50 mg/kg, 1 h): 5 | Tremor ([1]; 50 mg/kg, 1 h): 0 | Trunk curl ([1]; 50 mg/kg, 1 h): 0 | Wounds ([1]; 50 mg/kg, 1 h): 0 | Appearance of fur ([1]; 50 mg/kg, 24 h): 2 | Body position ([1]; 50 mg/kg, 24 h): 3.5 | Coat color ([1]; 50 mg/kg, 24 h): Black | Extension reflex ([1]; 50 mg/kg, 24 h): 2 | Gait ([1]; 50 mg/kg, 24 h): 0 | Patches of missing fur on body ([1]; 50 mg/kg, 24 h): 0 | Patches of missing fur on face ([1]; 50 mg/kg, 24 h): 0 | Pelvic elevation ([1]; 50 mg/kg, 24 h): 2 | Piloerection ([1]; 50 mg/kg, 24 h): 0 | Positional passivity ([1]; 50 mg/kg, 24 h): 0 | Presence of whiskers ([1]; 50 mg/kg, 24 h): 3 | Righting reflex ([1]; 50 mg/kg, 24 h): 0 | Salivation ([1]; 50 mg/kg, 24 h): 0 | Tail elevation ([1]; 50 mg/kg, 24 h): 1 | Touch escape ([1]; 50 mg/kg, 24 h): 2 | Transfer behavior ([1]; 50 mg/kg, 24 h): 5 | Tremor ([1]; 50 mg/kg, 24 h): 0 | Trunk curl ([1]; 50 mg/kg, 24 h): 0 | Wounds ([1]; 50 mg/kg, 24 h): 0 | Appearance of fur ([1]; 250 mg/kg, 1 h): 2 | Body position ([1]; 250 mg/kg, 1 h): 3 | Coat color ([1]; 250 mg/kg, 1 h): Black | Extension reflex ([1]; 250 mg/kg, 1 h): 2 | Gait ([1]; 250 mg/kg, 1 h): 0 | Patches of missing fur on body ([1]; 250 mg/kg, 1 h): 0 | Patches of missing fur on face ([1]; 250 mg/kg, 1 h): 0 | Pelvic elevation ([1]; 250 mg/kg, 1 h): 2 | Piloerection ([1]; 250 mg/kg, 1 h): 0 | Positional passivity ([1]; 250 mg/kg, 1 h): 0 | Presence of whiskers ([1]; 250 mg/kg, 1 h): 3 | Righting reflex ([1]; 250 mg/kg, 1 h): 0 | Salivation ([1]; 250 mg/kg, 1 h): 0 | Tail elevation ([1]; 250 mg/kg, 1 h): 1 | Touch escape ([1]; 250 mg/kg, 1 h): 2 | Transfer behavior ([1]; 250 mg/kg, 1 h): 5 | Tremor ([1]; 250 mg/kg, 1 h): 0 | Trunk curl ([1]; 250 mg/kg, 1 h): 0 | Wounds ([1]; 250 mg/kg, 1 h): 0 | Appearance of fur ([1]; 250 mg/kg, 24 h): 2 | Body position ([1]; 250 mg/kg, 24 h): 3 | Coat color ([1]; 250 mg/kg, 24 h): Black | Extension reflex ([1]; 250 mg/kg, 24 h): 2 | Gait ([1]; 250 mg/kg, 24 h): 0 | Patches of missing fur on body ([1]; 250 mg/kg, 24 h): 0 | Patches of missing fur on face ([1]; 250 mg/kg, 24 h): 0 | Pelvic elevation ([1]; 250 mg/kg, 24 h): 2 | Piloerection ([1]; 250 mg/kg, 24 h): 0 | Positional passivity ([1]; 250 mg/kg, 24 h): 0 | Presence of whiskers ([1]; 250 mg/kg, 24 h): 3 | Righting reflex ([1]; 250 mg/kg, 24 h): 0 | Salivation ([1]; 250 mg/kg, 24 h): 0 | Tail elevation ([1]; 250 mg/kg, 24 h): 1 | Touch escape ([1]; 250 mg/kg, 24 h): 2 | Transfer behavior ([1]; 250 mg/kg, 24 h): 5 | Tremor ([1]; 250 mg/kg, 24 h): 0 | Trunk curl ([1]; 250 mg/kg, 24 h): 0 | Wounds ([1]; 250 mg/kg, 24 h): 0 | adverse effect in Irwin tests ([1]; 1 h and 24 h treatments): did not cause any adverse effect | IBP signature, features affected [2]: mostly affected nuclear and mitochondrial membrane potential (TMRE) parameters | lysosomal size ([2]; APBD cells): reduced lysosomal size | mitochondrial membrane potential (MMP) ([2]; APBD cells): hyperpolarized
